Counter-ions that a name gives are not always drawn. Like-named read-outs stand apart in the source and are kept apart here. Where a SMILES comes first, the peptide text is derived from it. The star is where a group is joined. Cbz = O=C(OCc1ccccc1)*
What was measured:
HeLa = assay: Cell viability after 48-hr treatment (Table 1); format: cell-based, human; conditions: for IC50: read-out: IC50, HeLa; for potency in cell killing and polyubiquitin accumulation / functional assays relative to RA190: HeLa cells, FIGS. 1I, 9I, 10A-10C
Description: (§1) Cell viability was assayed using CellTiter 960 AQueous One Solution Reagent (Promega, Madison, Wis.). Cells seeded at the concentration of 1,000 cells/well for HeLa, 5,000 cells/well for ES2 and HCT116 and 10,000-20,000 cells/well for other cell lines in 100 μL medium in 96-well plate were treated with RA series compounds at specified concentrations. […]

OVCAR3 = assay: Cell viability after 48-hr treatment (Table 1); format: cell-based, human; conditions: XTT assay
Description: as §1

CasKi = assay: Cell viability after 48-hr treatment (Table 1); format: cell-based; conditions: read-out: IC50, CasKi
Description: (§2) Cell viability was assayed using CellTiter 960 AQueous One Solution Reagent (Promega, Madison, Wis.). Cells seeded at the concentration of 1,000 cells/well for HeLa, 5,000 cells/well for ES2 and HCT116 and 10,000-20,000 cells/well for other cell lines in 100 μL medium in 96-well plate were treated with RA series compounds at specified concentrations. After the indicated periods, cells were incubated according to the manufacturer's protocol with the MTS labeling mixture for 1-2 hr and absorbance at 490 nm measured using a Benchmark Plus microplate spectrophotometer (BIO-RAD).

HOK-16B = assay: Cell viability after 48-hr treatment (Table 1); format: cell-based; conditions: read-out: IC50, HOK-16B
Description: as §2

HT3 = assay: Cell viability after 48-hr treatment (Table 1); format: cell-based; conditions: read-out: IC50, HT3
Description: (§3) Cells seeded at the concentration of 1,000 cells/well for HeLa, 5,000 cells/well for ES2 and HCT116 and 10,000-20,000 cells/well for other cell lines in 100 μL medium in 96-well plate were treated with RA series compounds at specified concentrations. […]

HaCaT = assay: Cell viability after 48-hr treatment (Table 1); format: cell-based; conditions: read-out: IC50, HaCaT
Description: as §3

SiHa = assay: Cell viability after 48-hr treatment (Table 1); format: cell-based; conditions: read-out: IC50, SiHa
Description: as §3

C33A = assay: Cell viability after 48-hr treatment (Table 1); format: cell-based; conditions: read-out: IC50, C33A
Description: as §1

FaDu = assay: Cell viability after 48-hr treatment (Table 1); format: cell-based; conditions: read-out: IC50, FaDu
Description: as §1

SKOV3 = assay: Cell viability after 48-hr treatment (Table 1); format: cell-based; conditions: read-out: IC50, SKOV3
Description: as §1

cancer cells = assay: Antiproliferative activity against cancer cells (design rationale); format: cell-based
Description: We used Chloro and Nitro functional groups as substituent's on the aromatic ring due to their greater electron withdrawing effect at ortho (or) para (or) meta (or) both positions along with different amino acid linkages on bis-benzylidine piperidone moiety. Amino acids were chosen based in their physical characteristics like very hydrophobic (phenylalanine), strongly basic and hydrophilic (lysine), basic and hydrophilic (histidine) and amphiphilic (glycine). Commercially available Fmoc and Boc protected amino acids were used in the synthesis, and they were evaluated for their antiproliferatory activity against cancer cells.
Next we synthesized another set of compounds by converting free amine functionality to its Acetate (Ac), Acrolyl (Acr) and Benzoyl […] analogs as these units are part of many anticancer drugs because of their smaller size and feasibility to form inter molecular hydrogen bonds with proteins.
In the RA195 molecule two amino functionalities of lysine can provide more flexibility to make better analogs.

RPN13 = target: T1, RPN13 (Homo sapiens, UniProt Q16186); assay: Biotin labeling assay; format: binding; conditions: cell lysate or purified RP, streptavidin-peroxidase blot
T1 construct: endogenous in cells; host or cells: HeLa, HS578T cell lysate
T1 sequence (Q16186 whole entry): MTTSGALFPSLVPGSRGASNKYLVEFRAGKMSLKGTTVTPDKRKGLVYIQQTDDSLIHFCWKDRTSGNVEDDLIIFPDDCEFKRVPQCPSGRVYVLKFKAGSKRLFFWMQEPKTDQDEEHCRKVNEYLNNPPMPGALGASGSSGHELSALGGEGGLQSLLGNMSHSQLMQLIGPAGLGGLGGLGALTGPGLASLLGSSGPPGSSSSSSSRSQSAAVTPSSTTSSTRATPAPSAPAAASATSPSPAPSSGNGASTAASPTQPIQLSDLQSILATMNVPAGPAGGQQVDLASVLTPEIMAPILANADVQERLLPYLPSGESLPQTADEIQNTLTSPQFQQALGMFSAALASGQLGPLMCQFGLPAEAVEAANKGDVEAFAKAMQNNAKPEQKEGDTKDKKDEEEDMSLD
Description: FIGS. 10 A-10E show a series of graphs and immunoblots showing the effects of several compounds on cell viability and proteasome activity. […] 10B and 10C show immunoblots of the proteasome activity of cell lines treated with the indicated compounds. […] IC50 values were determined in triplicate. In FIG. 10B, HeLa cells were treated for 12 hr and the cell lysate was subjected to immunoblot analysis with anti-Ubiquitin antibody. In FIG. 10C, SiHa cells were treated with the indicated compounds for 12 hr and the lysate subjected to Western blot analysis with anti-Ubiquitin antibody. HeLa cell lysate was treated with RA190B, subjected to SDS-PAGE, and probed with streptavidin-peroxidase following protein transfer to a polyvinylidene difluoride (PVDF) membrane. The streptavidin-peroxidase bound to biotinylated cellular proteins, but a striking new band at 42 kDa appeared in RA190B-treated samples (FIG. 2A). […] IC50 values were determined in triplicate.
To eliminate the possibility that another RP component was required for RA190B interaction, RPN13 or an irrelevant protein (L2) was overexpressed in bacteria. Cell lysate harvested from bacteria either with or without […] induction of ectopic protein expression was labeled with RA190B and probed by blotting with streptavidin-peroxidase. RA190B reacted strongly with a 42 kDa protein only in lysates of bacteria expressing RPN13 (FIG. 2D). […] 800 μL fractions were collected and alternate fractions (1,3,5,7,9,11,13,15,17) were analyzed for the presence of proteasomal proteins (RPN13, RPN2, RPN1 and UCH37) by Western blot analysis.
Human cells (5×10^6 HeLa or 293TT cells) were lysed using MPER (Pierce) lysis buffer (500 μL). RPN13 or HPV L2 transformed bacterial cells (500 μL of culture) were centrifuged to harvest the cells which were re-suspended in 500 μL BPER (Pierce). Cell lysates were centrifuged at 10,000 rpm briefly (2 min) at 4° C. to remove cell debris. Lysate supernatant (200 μL) was pre cleared with streptavidin dyna beads (20 μL) for 1 h at 4° C. to remove non-specific biotin binding and incubated with compounds (indicated concentrations or 20 μM) at 4° C. for 1 hr. An equal amount of each sample (20 μL of lysate) was mixed with an equal volume of Laemmli sample buffer (20 μL) (BioRad) and was boiled for 5 min. […] (24 V). Membrane was blocked with 5% BSA in PBST for 1 hr at room temperature and washed for 20 min (3×PBST). Then the membrane was probed with HRP-streptavidin (1:10,000 in PBST) for 1 hr at room temperature and washed for 30 min (3×PBST) and developed using HyGLO chemiluminescent detection reagent (Denville) for biotin recognition. For the purified enzyme assay, 19S purified proteasome (R&D Systems, Cat. No. E-366) (500 ng) in 19S buffer (20 mM HEPES, 20 mM NaCl, 1 mM DTT, 15% Glycerol) was incubated with compounds (20 μM) for 1 hr at room temperature and mixed with an equal volume of Laemmli sample buffer (20 μL) (BioRad) and was boiled for 5 min. Each sample was loaded onto gel and followed the western blot protocol mentioned above.
Purified 19S proteasome (500 ng) was incubated with corresponding compounds for 30 min and subjected to immunoblot and probed with HRP-conjugated streptavidin. In FIG. 23, the single band at 42 KDa indicates Rpn13 binding to 195. RA183B (20 μM) is used as positive control for Rpn13 binding. Competition experiments were done with RA183 (100 μM) and RA195 (100 μM) along with RA195B (20 μM).

| Compound | IC50 (HeLa; 48-hr treatment, XTT assay) [nM] | IC50 (OVCAR3) [nM] | IC50 (CasKi; 48-hr treatment, XTT assay) [nM] | IC50 (HOK-16B; 48-hr treatment, XTT assay) [nM] | IC50 (HT3; 48-hr treatment, XTT assay) [nM] | IC50 (HaCaT; 48-hr treatment, XTT assay) [nM] | IC50 (SiHa; 48-hr treatment, XTT assay) [nM] | IC50 (C33A; 48-hr treatment, XTT assay) [nM] | IC50 (FaDu; 48-hr treatment, XTT assay) [nM] | IC50 (SKOV3; 48-hr treatment, XTT assay) [nM] | potency in cell killing and polyubiquitin accumulation / functional assays relative to RA190 (HeLa) | further results |
| --- | --- | --- | --- | --- | --- | --- | --- | --- | --- | --- | --- | --- |
| N[C@@H](Cc1c[nH]cn1)C(=O)N1CC(=Cc2ccc(Cl)c(Cl)c2)C(=O)C(=Cc2ccc(Cl)c(Cl)c2)C1 [RA196, 3,5-bis(3,4-dichlorobenzylidene)-1-(S-1H-imidazol-4-yl) piperidin-4-one di HCl salt] | 600 | 2500 | 1000 | 3000 | > 5000 | > 2500 | 2000 | > 5000 | > 5000 | > 2500 |  |  |
| Cl.NC(Cc1ccccc1)C(=O)N1C/C(=C\c2ccc(Cl)c(Cl)c2)C(=O)/C(=C/c2ccc(Cl)c(Cl)c2)C1 (stereo not shown) [RA190D] |  |  |  |  |  |  |  |  |  |  |  | antiproliferative potency among analogs (cancer cells): Neither of these compounds was as good as RA190 |
| O=C(CCCC[C@@H]1SCC2NC(=O)NC21)NCCCC[C@H](NC(=O)OCC1c2ccccc2-c2ccccc21)C(=O)N1C/C(=C\c2ccc(Cl)c(Cl)c2)C(=O)/C(=C/c2ccc(Cl)c(Cl)c2)C1 (stereo partly shown) [RA195B] |  |  |  |  |  |  |  |  |  |  |  | labeling of / competition for RPN13 (42 kDa band) (RPN13): labels HeLa cell lysate at 42 KDa |
| N[C@@H](Cc1ccccc1)C(=O)N1CC(=Cc2ccccc2Cl)C(=O)C(=Cc2ccccc2Cl)C1 [RA166, 3,5-bis(2-chlorobenzylidene)-1-(S-2-amino-3-phenyl)-piperidin-4-one-HCl salt] | 600 | > 5000 | 1500 | > 5000 | > 5000 | > 2500 | 2000 | > 5000 | > 5000 | > 2500 |  |  |
| 3,5-bis(3,4-dichlorobenzylidene)-1-(S-2-amino-3-(4-hydroxy)-phenyl)-piperidin-4-one HCl salt [RA213] | 600 | > 5000 | 600 | 1500 | > 5000 | > 2500 | 2500 | > 5000 | > 5000 | > 2500 |  |  |
| O=C(CCCC[C@@H]1SCC2NC(=O)NC21)N[C@@H](Cc1ccccc1)C(=O)N1C/C(=C\c2ccc(Cl)c(Cl)c2)C(=O)/C(=C/c2ccc(Cl)c(Cl)c2)C1 (stereo partly shown) [RA190B] |  |  |  |  |  |  |  |  |  |  | did not affect its potency | labeling of / competition for RPN13 (42 kDa band) (RPN13): bound to the 42 kDa protein |
| O=C1/C(=C/c2ccc(Cl)c(Cl)c2)CN(C(=O)[C@H](Cc2ccccc2)NC(=O)c2ccccn2)C/C1=C\c1ccc(Cl)c(Cl)c1 [RA190P] |  |  |  |  |  |  |  |  |  |  |  | antiproliferative potency among analogs (cancer cells): Neither of these compounds was as good as RA190 |
| CC(C)C[C@@H](C=O)NC(=O)[C@H](CC(C)C)NC(=O)[C@H](CC(C)C)NC(=O)OCc1ccccc1 [MG132, reference compound] (Cbz-Leu-Leu-Leu-aldehyde) |  |  |  |  |  |  |  |  |  |  |  | IC50 (HeLa; Homo sapiens, HeLa, 48 h): 750 nM; IC50 (CasKi; Homo sapiens, Ca-Ski, 48 h): 500 nM; IC50 (HOK-16B; 48 h): 700 nM; IC50 (HT3; Homo sapiens, HT-3, 48 h): > 5000 nM; IC50 (HaCaT; Homo sapiens, HaCaT, 48 h): > 2500 nM; IC50 (SiHa; Homo sapiens, SiHa, 48 h): 2000 nM; IC50 (C33A; Homo sapiens, C-33-A, 48 h): > 5000 nM; IC50 (FaDu; Homo sapiens, FaDu, 48 h): > 2500 nM; IC50 (SKOV3; Homo sapiens, SK-OV-3, 48 h): > 2500 nM |
| N[C@@H](Cc1ccccc1)C(=O)N1CC(=Cc2ccccc2F)C(=O)C(=Cc2ccccc2F)C1 [RA201, 3,5-bis(2-fluorobenzylidene)-1-(S-2-amino-3-phenyl)-piperidin-4-one-HCl salt] | 350 | > 5000 | 2500 | 1500 | > 5000 | > 2500 | 2000 | > 5000 | > 5000 | > 2500 |  |  |
| N[C@@H](Cc1ccccc1)C(=O)N1CC(=Cc2ccccc2)C(=O)C(=Cc2ccccc2)C1 [RA181, 3,5-dibenzylidene-1-(S-2-amino-3-phenyl)-piperidin-4-one-HCl salt] | 350 | > 5000 | 2000 | > 5000 | > 5000 | > 2500 | 2000 | > 5000 | > 5000 | > 2500 |  |  |
| N[C@@H](Cc1ccccc1)C(=O)N1C/C(=C\c2ccc(Cl)c(Cl)c2)C(=NO)/C(=C/c2ccc(Cl)c(Cl)c2)C1 [RA190O] |  |  |  |  |  |  |  |  |  |  | dramatically reduced activity |  |
| Cl.N[C@@H](Cc1ccccc1)C(=O)N1CC(C(SCCO)c2ccc(Cl)c(Cl)c2)C(=O)C(C(SCCO)c2ccc(Cl)c(Cl)c2)C1 (stereo partly shown) [RA190ME, 3,5-bis((2-hydroxyethylthio)(3,4-dichlorophenyl)methyl)-1-(S-2-amino-3-phenyl)-piperidin-4-one-HCl salt] |  |  |  |  |  |  |  |  |  |  | significantly reduced its potency |  |
| N[C@@H](Cc1ccccc1)C(=O)N1CC(Cc2ccc(Cl)c(Cl)c2)C(O)C(Cc2ccc(Cl)c(Cl)c2)C1 (stereo partly shown) [RA190R] |  |  |  |  |  |  |  |  |  |  | dramatically reduced activity |  |
